Assay results from US12337033B2, “Encapsulated glycolipid antigens for treatment of neoplastic diseases” (EnGeneIC Molecular Delivery Pty Ltd, priority 2019, dated 2025).

How the values were obtained:
[1] = system: many different tumor cell lines; experiment: Cytotoxicity assays against tumor cell lines; assay type: cell-based
[2] = system: JAWSII cells; experiment: αGC surface presentation through CD1d on JAWSII cells (anti-alpha GalCer:mCD1d staining, flow cytometry); assay type: cell-based, mouse; settings: 8h-48h post-treatment, compared to minicells alone and untreated, free αGC 1000 ng/ml
Method: Cells used: Mouse immature […] JAWSII (ATCC® CRL-11904™).
Preparation Perfecta3D 96-Well Hanging Drop Plate: The upper and lower side tray reservoirs of the 3D hanging drop plates were filled with melted 1% agarose using a P1000 pipette (1 g agarose dissolve in 100 ml of water, dissolved in microwave and allowed to cool to ˜50° C.). The plates were allowed to dry and settle at room temperature for at least 30 min. The outside wells of the hanging drop plate were then filled with 50 μl of sterile cell culture media (without cells)/well.
Treatment of JAWSII spheroids with EDVαGC: JAWSII cells were treated with 1000 ng/ml aGC (positive control); empty minicells and minicellsαGC compared to untreated cells and collected at 8h, 16h, 24h and 48h post-treatment (FIGS. 8A-8D).
Dissociation of JAWSII cells into single-cell suspensions: JAWSII cells were grown as semi-suspension cultures in T25 or T75 flasks. The culture media was carefully collected into a sterile 50 ml tube by pipetting using a pipette-aid and the culture surface of the flask was washed 2× with 5 ml of sterile PBS, and collected in the same sterile 50 ml tube after each wash. […] To determine the cell number, 10 μl of the cell suspension was mixed with 10 μl of trypan blue solution and analyzed using an EVE automated cell counter. […]

| SMILES | drug resistance in tumor cell lines ([1]; a number of different tumor cell lines) | potency compared with a range of conventional chemotherapeutics ([1]; cytotoxicity assays, many different tumor cell lines) | staining with anti-GalCer:mCD1d (α-GC presentation on the cell surface by CD1d) [2] |
| --- | --- | --- | --- |
| COc1cccc2c1C(=O)c1c(O)c3c(c(O)c1C2=O)C[C@@](O)(C(=O)CO)C[C@@H]3OC1CC2C(OC3C(OC)OCCN23)C(C)O1 (stereo partly drawn) [PNU159682, 3′-deamino-3″,4′-anhydro-[2″(S)-methoxy-3″(R)-oxy-4″-morpholinyl] doxorubicin] | appears to overcome drug resistance | much more potent |  |
| CCCCCCCCCCCCCCCCCCCCCCCCCC(=O)N[C@@H](CO[C@H]1O[C@H](CO)[C@H](O)[C@H](O)[C@H]1O)[C@H](O)[C@H](O)CCCCCCCCCCCCCC [free α-GC, α-galactosylceramide] |  |  | clear shift |
